These results are taken from patent publication US11739100B2, “2,3-dihydro-1h-imidazo{1,2-a}pyrimidin-5-one and this 1,2,3,4-tetrahydropyrimido{1,2-a}pyrimidin-6-one derivatives comprising a substituted morpholine, preparation thereof and pharmaceutical use thereof” (SANOFI, priority 2012, dated 2023).

SMILES strings stand for the structures.

T1 sequence (Q8NEB9 whole entry): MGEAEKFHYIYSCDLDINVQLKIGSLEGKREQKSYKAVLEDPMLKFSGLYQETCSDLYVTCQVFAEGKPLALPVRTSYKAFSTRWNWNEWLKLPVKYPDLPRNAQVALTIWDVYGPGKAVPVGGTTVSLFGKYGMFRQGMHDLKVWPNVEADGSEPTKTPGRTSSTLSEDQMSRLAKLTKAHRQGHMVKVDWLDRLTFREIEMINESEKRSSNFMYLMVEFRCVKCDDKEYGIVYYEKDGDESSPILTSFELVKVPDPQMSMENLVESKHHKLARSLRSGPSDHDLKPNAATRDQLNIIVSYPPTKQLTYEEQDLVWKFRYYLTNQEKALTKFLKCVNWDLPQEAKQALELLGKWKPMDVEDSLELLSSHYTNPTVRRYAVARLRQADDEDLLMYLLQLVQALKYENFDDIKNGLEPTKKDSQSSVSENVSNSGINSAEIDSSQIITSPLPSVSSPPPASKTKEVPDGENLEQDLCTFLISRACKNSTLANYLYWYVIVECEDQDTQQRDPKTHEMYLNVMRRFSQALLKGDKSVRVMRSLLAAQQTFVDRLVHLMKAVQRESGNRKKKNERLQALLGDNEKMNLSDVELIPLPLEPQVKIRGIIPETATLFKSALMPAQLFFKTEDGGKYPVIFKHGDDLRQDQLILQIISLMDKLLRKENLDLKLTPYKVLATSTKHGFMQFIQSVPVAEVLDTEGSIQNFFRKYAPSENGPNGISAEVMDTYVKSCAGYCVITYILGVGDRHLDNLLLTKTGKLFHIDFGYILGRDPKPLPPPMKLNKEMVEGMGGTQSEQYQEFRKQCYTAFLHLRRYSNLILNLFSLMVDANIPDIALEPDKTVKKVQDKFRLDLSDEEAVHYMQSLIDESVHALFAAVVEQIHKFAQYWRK

This experiment concerns the target T1, recombinant Vps34 (Homo sapiens, UniProt Q8NEB9).
T1 construct: purchased Invitrogen PV5126
Put plainly: Phosphorylation of phosphatidylinositol (PI) by Vps34 in vitro, ADP detected by TR-FRET (HTRF Transcreener ADP). As to conditions: 10 μM ATP, 55 μg/ml PI, approximately 3 nM Vps34, 1 hour at ambient temperature; absolute IC50, mean of two independent experiments; read-out: IC50 activity range. The experiment is classed as biochemical.
Turning to `C[C@@H]1COCCN1c1cc(=O)n2c(n1)N(Cc1cocn1)[C@H](C(F)(F)F)CC2` [Example 103, (S)-2-((R)-3-Methyl-morpholin-4-yl)-9-oxazol-4-ylmethyl-8-trifluoromethyl-6,7,8,9-tetrahydro-pyrimido[1,2-a]-pyrimidin-4-one], the IC50 (in general, the concentration at which inhibition is half-maximal) is less than 10 nM.
The same measure for `Cc1ccc(S(=O)(=O)N2c3nc(N4CCOC[C@H]4C)cc(=O)n3CC[C@H]2C(F)(F)F)cc1` [Example 104, (S)-2-((R)-3-Methyl-morpholin-4-yl)-9-(toluene-4-sulfonyl)-8-trifluoromethyl-6,7,8,9-tetrahydro-pyrimido[1,2-a]-pyrimidin-4-one]: 10 to 100 nM; for `C[C@@H]1COCCN1c1cc(=O)n2c(n1)N(Cc1ccno1)CC[C@@H]2C(F)(F)F` [Example 105, (R)-9-Isoxazol-5-yl-methyl-2-((R)-3-methylmorpholin-4-yl)-6-trifluoromethyl-6,7,8,9-tetrahydro-pyrimido[1,2-a]-pyrimidin-4-one]: 10 to 100 nM; for `C[C@@H]1COCCN1c1cc(=O)n2c(n1)N(c1ccc(C3CC3)nc1)CC[C@@H]2C(F)(F)F` [Example 107, (R)-9-(6-Cyclopropyl-pyridin-3-yl)-2-((R)-3-methylmorpholin-4-yl)-6-trifluoromethyl-6,7,8,9-tetrahydro-pyrimido[1,2-a]-pyrimidin-4-one]: less than 10 nM.
For the compound `C[C@@H]1COCCN1c1cc(=O)n2c(n1)N(c1ccnc(Cl)c1)CC[C@@H]2C(F)(F)F` [Example 108, (R)-9-(2-Chloro-pyridin-4-yl)-2-((R)-3-methylmorpholin-4-yl)-6-trifluoromethyl-6,7,8,9-tetrahydro-pyrimido[1,2-a]-pyrimidin-4-one], the IC50 was less than 10 nM.
The same measure for `COc1cc(N2CC[C@H](C(F)(F)F)n3c2nc(N2CCOC[C@H]2C)cc3=O)ccn1` [Example 109, (R)-9-(2-Methoxy-pyridin-4-yl)-2-((R)-3-methylmorpholin-4-yl)-6-trifluoromethyl-6,7,8,9-tetrahydro-pyrimido[1,2-a]-pyrimidin-4-one]: less than 10 nM.
As for `C[C@@H]1COCCN1c1cc(=O)n2c(n1)N(Cc1cocn1)CC[C@@H]2C(F)(F)F` [Example 110, (R)-2-((R)-3-Methyl-morpholin-4-yl)-9-oxazol-4-ylmethyl-6-trifluoromethyl-6,7,8,9-tetrahydro-pyrimido[1,2-a]-pyrimidin-4-one], the IC50 was 10 to 100 nM.
Regarding `C[C@@H]1COCCN1c1nc2n(c(=O)c1F)CC[C@@H](C(F)(F)F)N2Cc1cnco1` [Example 111, (S)-3-Fluoro-2-((R)-3-methylmorpholin-4-yl)-9-oxazol-5-ylmethyl-8-trifluoromethyl-6,7,8,9-tetrahydro-pyrimido[1,2-a]-pyrimidin-4-one], the IC50 was less than 10 nM.
For the compound `C[C@@H]1COCCN1c1cc(=O)n2c(n1)N(Cc1ccnc(Cl)c1)CC[C@@H]2C(F)(F)F` [Example 112, (R)-9-(2-Chloro-pyridin-4-ylmethyl)-2-((R)-3-methyl-morpholin-4-yl)-6-trifluoromethyl-6,7,8,9-tetrahydro-pyrimido[1,2-a]-pyrimidin-4-one], the IC50 is less than 10 nM.
The same measure for `C[C@@H]1COCCN1c1cc(=O)n2c(n1)N(CC(C)(C)O)CC[C@@H]2C(F)(F)F` [Example 113, (R)-9-(2-Hydroxy-2-methylpropyl)-2-((R)-3-methylmorpholin-4-yl)-6-trifluoromethyl-6,7,8,9-tetrahydro-pyrimido[1,2-a]-pyrimidin-4-one]: 10 to 100 nM.
The same measure for `CC(C)Oc1cc(N2CC[C@H](C(F)(F)F)n3c2nc(N2CCOC[C@H]2C)cc3=O)ccn1` [Example 114, (R)-9-(2-Isopropoxy-pyridin-4-yl)-2-((R)-3-methylmorpholin-4-yl)-6-trifluoromethyl-6,7,8,9-tetrahydro-pyrimido[1,2-a]-pyrimidin-4-one]: less than 10 nM; for `C[C@@H]1COCCN1c1cc(=O)n2c(n1)N(Cc1ccc(Cl)nc1)CC[C@@H]2C(F)(F)F` [Example 115, (R)-9-(6-Chloro-pyridin-3-ylmethyl)-2-((R)-3-methyl-morpholin-4-yl)-6-trifluoromethyl-6,7,8,9-tetrahydro-pyrimido[1,2-a]-pyrimidin-4-one]: less than 10 nM.
As for `CC(C)Oc1ccc(N2CC[C@H](C(F)(F)F)n3c2nc(N2CCOC[C@H]2C)cc3=O)cn1` [Example 116, (R)-9-(6-Isopropoxy-pyridin-3-yl)-2-((R)-3-methylmorpholin-4-yl)-6-trifluoromethyl-6,7,8,9-tetrahydro-pyrimido[1,2-a]-pyrimidin-4-one], the figure is less than 10 nM; as for `C[C@@H]1COCCN1c1cc(=O)n2c(n1)N(Cc1cnco1)CC[C@@H]2C(F)(F)F` [Example 117, (R)-2-((R)-3-Methyl-morpholin-4-yl)-9-oxazol-5-ylmethyl-6-trifluoromethyl-6,7,8,9-tetrahydro-pyrimido[1,2-a]-pyrimidin-4-one], 10 to 100 nM; as for `C[C@@H]1COCCN1c1cc(=O)n2c(n1)N(CC(=O)C1CC1)CC[C@@H]2C(F)(F)F` [Example 118, (R)-9-(2-Cyclopropyl-2-oxoethyl)-2-((R)-3-methylmorpholin-4-yl)-6-trifluoromethyl-6,7,8,9-tetrahydro-pyrimido[1,2-a]-pyrimidin-4-one], less than 10 nM.
For the compound `COc1cc(N2CC[C@H](C(F)(F)F)n3c2nc(N2CCOC[C@H]2C)c(F)c3=O)ccn1` [Example 119, (R)-3-Fluoro-9-(2-methoxypyridin-4-yl)-2-((R)-3-methyl-morpholin-4-yl)-6-trifluoromethyl-6,7,8,9-tetrahydro-pyrimido[1,2-a]-pyrimidin-4-one], the IC50 was less than 10 nM.
As for `C[C@@H]1COCCN1c1nc2n(c(=O)c1F)[C@@H](C(F)(F)F)CCN2CC(=O)C1CC1` [Example 120, (R)-9-(2-Cyclopropyl-2-oxoethyl)-3-fluoro-2-((R)-3-methyl-morpholin-4-yl)-6-trifluoromethyl-6,7,8,9-tetrahydro-pyrimido[1,2-a]-pyrimidin-4-one], the figure is less than 10 nM; as for `C[C@@H]1COCCN1c1nc2n(c(=O)c1F)[C@@H](C(F)(F)F)CCN2c1ccc(C(F)F)nc1` [Example 121, (R)-9-(6-Difluoromethylpyridin-3-yl)-3-fluoro-2-((R)-3-methylmorpholin-4-yl)-6-trifluoromethyl-6,7,8,9-tetrahydro-pyrimido[1,2-a]-pyrimidin-4-one], less than 10 nM; as for `C[C@@H]1COCCN1c1nc2n(c(=O)c1F)[C@@H](C(F)(F)F)CCN2c1ccnc(Cl)c1` [Example 122, (R)-9-(2-Chloro-pyridin-4-yl)-3-fluoro-2-((R)-3-methyl-morpholin-4-yl)-6-trifluoromethyl-6,7,8,9-tetrahydro-pyrimido[1,2-a]-pyrimidin-4-one], less than 10 nM.
The same measure for `Cc1nnc(CN2c3nc(N4CCOC[C@H]4C)cc(=O)n3CC[C@H]2C(F)(F)F)s1` [Example 123, (S)-2-((R)-3-Methyl-morpholin-4-yl)-9-(5-methyl-[1,3,4]thiadiazol-2-yl-methyl)-8-trifluoromethyl-6,7,8,9-tetrahydro-pyrimido[1,2-a]-pyrimidin-4-one]: 10 to 100 nM; for `C[C@@H]1COCCN1c1cc(=O)n2c(n1)N(c1ccc(OC(F)F)nc1)[C@H](C(F)(F)F)CC2` [Example 124, (S)-9-(6-Difluoromethoxy-pyridin-3-yl)-2-((R)-3-methylmorpholin-4-yl)-8-trifluoromethyl-6,7,8,9-tetrahydro-pyrimido[1,2-a]-pyrimidin-4-one]: less than 10 nM; for `Cc1nnsc1CN1c2nc(N3CCOC[C@H]3C)cc(=O)n2CC[C@H]1C(F)(F)F` [Example 125, (S)-2-((R)-3-Methyl-morpholin-4-yl)-9-(4-methyl-[1,2,3]thiadiazol-5-yl-methyl)-8-trifluoromethyl-6,7,8,9-tetrahydro-pyrimido[1,2-a]-pyrimidin-4-one]: 10 to 100 nM.
On to `C[C@@H]1COCCN1c1nc2n(c(=O)c1F)[C@@H](C(F)(F)F)CCN2CC(=O)c1cccnc1` [Example 126, (R)-3-Fluoro-2-((R)-3-methylmorpholin-4-yl)-9-(2-oxo-2-pyridin-3-ylethyl)-6-trifluoromethyl-6,7,8,9-tetrahydro-pyrimido[1,2-a]-pyrimidin-4-one], for which the IC50 was less than 10 nM.
As for `C[C@@H]1COCCN1c1nc2n(c(=O)c1F)[C@@H](C(F)(F)F)CCN2c1ccc(OC(F)F)nc1` [Example 127, (R)-9-(6-Difluoromethoxy-pyridin-3-yl)-3-fluoro-2-((R)-3-methyl-morpholin-4-yl)-6-trifluoromethyl-6,7,8,9-tetrahydro-pyrimido[1,2-a]-pyrimidin-4-one], the figure is less than 10 nM; as for `CC(C)C(=O)CN1CC[C@H](C(F)(F)F)n2c1nc(N1CCOC[C@H]1C)c(F)c2=O` [Example 128, (R)-3-Fluoro-2-((R)-3-methylmorpholin-4-yl)-9-(3-methyl-2-oxo-butyl)-6-trifluoromethyl-6,7,8,9-tetrahydro-pyrimido[1,2-a]-pyrimidin-4-one], less than 10 nM; as for `C[C@@H]1COCCN1c1nc2n(c(=O)c1F)[C@@H](C(F)(F)F)CCN2Cc1ncco1` [Example 129, (R)-3-Fluoro-2-((R)-3-methylmorpholin-4-yl)-9-oxazol-2-ylmethyl-6-trifluoromethyl-6,7,8,9-tetrahydro-pyrimido[1,2-a]-pyrimidin-4-one], less than 10 nM.
The same measure for `CC(C)C(=O)CN1CC[C@H](C(F)(F)F)n2c1nc(N1CCOC[C@H]1C)cc2=O` [Example 130, (R)-2-((R)-3-Methyl-morpholin-4-yl)-9-(3-methyl-2-oxobutyl)-6-trifluoromethyl-6,7,8,9-tetrahydro-pyrimido[1,2-a]-pyrimidin-4-one]: less than 10 nM; for `C[C@@H]1COCCN1c1cc(=O)n2c(n1)N(CC(=O)C1CCOCC1)CC[C@@H]2C(F)(F)F` [Example 131, (R)-2-((R)-3-Methyl-morpholin-4-yl)-9-[2-oxo-2-(tetrahydro-pyran-4-yl)ethyl]-6-trifluoromethyl-6,7,8,9-tetrahydro-pyrimido[1,2-a]-pyrimidin-4-one]: less than 10 nM.
